{"source": "patent US11427550B2", "about": "“5-fluorouracil compounds” (NUCORION PHARMACEUTICALS, INC., priority 2018, dated 2022)", "test": "Tissue distribution following oral administration of reference compounds and the disclosed compounds", "type": "in vivo, rats", "settings": "rat", "description": "The liver specificity of the disclosed compounds is compared relative to a corresponding active compound in liver and other organs that could be targets of toxicity.\nReference compounds and the cyclic deoxyribonucleotide, acetal, and hemiaminal compounds are administered at 5-50 mg/kg to fasted rats by oral gavage. Plasma concentrations of the metabolites, and parent compounds in circulation and in the hepatic portal vein are determined by HPLC-UV, and the liver, small intestine, and other organ concentrations are measured by LC-MS using the standard chromatography method.", "key": {"[1]": {"settings": "drug level in the blood 1 hour after oral administration at 5 mg/kg dose in rats (Table 1), read-out: Drugblood"}, "[2]": {"settings": "drug level in the liver 1 hour after oral administration at 5 mg/kg dose in rats (Table 1), read-out: Drugliver"}, "[3]": {"settings": "prodrug level in the blood 1 hour after oral administration at 5 mg/kg dose in rats (Table 2), read-out: Drugblood"}, "[4]": {"settings": "prodrug level in the liver 1 hour after oral administration at 5 mg/kg dose in rats (Table 2), read-out: Drugliver"}}, "note": "Where two headings read alike, the source gives them in different places."}
{"smiles": "O=c1[nH]c(=O)n([C@H]2C[C@@H]3OP(=O)(OCc4ccc(Cl)cc4)OC[C@H]3O2)cc1F", "note": "(single isomer, unassigned) [Compound 127]", "values": [{"measurement": "concentration at 1 h", "setting": "[1]", "result": 7.81, "unit": "ng/mL"}, {"measurement": "concentration at 1 h", "setting": "[2]", "result": "< 6", "unit": "ng/g"}]}
{"smiles": "CCOCOC1[C@@H](O)[C@H](n2cc(F)c(=O)n(COCC)c2=O)O[C@@H]1C", "note": "(stereo in doubt) [Compound 109, 1-((2R,3R,4R,5R)-4-(Ethoxymethoxy)-3-hydroxy-5-methyltetrahydrofuran-2-yl)-3-(ethoxymethyl)-5-fluoropyrimidine-2,4(1H,3H)-dione]", "values": [{"measurement": "concentration at 1 h", "setting": "[1]", "result": 83.9, "unit": "ng/mL"}, {"measurement": "concentration at 1 h", "setting": "[2]", "result": 373, "unit": "ng/g"}]}
{"smiles": "CCCCCOC(=O)Nc1nc(=O)n([C@@H]2O[C@H](C)[C@@H](O)[C@H]2O)cc1F", "note": "[Capecitabine, reference compound]", "values": [{"measurement": "concentration at 1 h", "setting": "[3]", "result": 88.4, "unit": "ng/mL"}, {"measurement": "concentration at 1 h", "setting": "[4]", "result": 44.7, "unit": "ng/g"}]}
{"smiles": "C[C@H]1O[C@@H](n2cc(F)c(=O)[nH]c2=O)[C@@H]2OC(c3ccc(O)cc3)O[C@@H]21", "note": "(stereo partly drawn) [Compound 116, 5-Fluoro-1-((3aR,4R,6R,6aR)-2-(4-hydroxyphenyl)-6-methyltetrahydrofuro[3,4-d][1,3]dioxol-4-yl)pyrimidine-2,4(1H,3H)-dione]", "values": [{"measurement": "concentration at 1 h", "setting": "[1]", "result": 1350, "unit": "ng/mL"}, {"measurement": "concentration at 1 h", "setting": "[2]", "result": 978, "unit": "ng/g"}]}
{"smiles": "COc1ccc(C2O[C@@H]3[C@H](O2)[C@@H](C)O[C@H]3n2cc(F)c(=O)[nH]c2=O)cc1", "note": "(stereo partly drawn) [Compound 118, 5-Fluoro-1-((3aR,4R,6R,6aR)-2-(4-methoxyphenyl)-6-methyltetrahydrofuro[3,4-d][1,3]dioxol-4-yl)pyrimidine-2,4(1H,3H)-dione]", "values": [{"measurement": "concentration at 1 h", "setting": "[1]", "result": 3680, "unit": "ng/mL"}, {"measurement": "concentration at 1 h", "setting": "[2]", "result": 1220, "unit": "ng/g"}]}
{"smiles": "O=c1[nH]c(=O)n([C@H]2C[C@@H]3OP(=O)(Oc4ccccc4)OC[C@H]3O2)cc1F", "note": "(stereo partly drawn) [Compound 122, 5-Fluoro-1-((4aR,6R,7aS)-2-oxido-2-phenoxytetrahydro-4H-furo[3,2-d][1,3,2]dioxaphosphinin-6-yl)pyrimidine-2,4(1H,3H)-dione]", "values": [{"measurement": "concentration at 1 h", "setting": "[1]", "result": 301, "unit": "ng/mL"}, {"measurement": "concentration at 1 h", "setting": "[2]", "result": 1980, "unit": "ng/g"}]}
{"smiles": "CCCCCCCCCOP1(=O)OC[C@H]2O[C@@H](n3cc(F)c(=O)[nH]c3=O)C[C@@H]2O1", "note": "(stereo partly drawn) [Compound 132, 5-Fluoro-1-((4aR,6R,7aS)-2-(nonyloxy)-2-oxidotetrahydro-4H-furo[3,2-d][1,3,2]dioxaphosphinin-6-yl)pyrimidine-2,4(1H,3H)-dione]", "values": [{"measurement": "concentration at 1 h", "setting": "[1]", "result": 59.9, "unit": "ng/mL"}, {"measurement": "concentration at 1 h", "setting": "[2]", "result": 1370, "unit": "ng/g"}]}
{"smiles": "O=c1[nH]c(=O)n([C@H]2C[C@@H]3OP(=O)(OCc4ccccc4F)OC[C@H]3O2)cc1F", "note": "(stereo partly drawn) [Compound 139, 1-((4aR,6R,7aS)-2-(2-Fluorobenzyloxy)-2-oxidotetrahydro-4H-furo[3,2-d][1,3,2]dioxaphosphinin-6-yl)-5-fluoropyrimidine-2,4(1H,3H)-dione]", "values": [{"measurement": "concentration at 1 h", "setting": "[1]", "result": 11.3, "unit": "ng/mL"}, {"measurement": "concentration at 1 h", "setting": "[2]", "result": "< 6", "unit": "ng/g"}]}
{"smiles": "CCc1ccc(COP2(=O)OC[C@H]3O[C@@H](n4cc(F)c(=O)[nH]c4=O)C[C@@H]3O2)cc1", "note": "(stereo partly drawn) [Compound 147, 1-((4aR,6R,7aS)-2-(4-Ethylbenzyloxy)-2-oxidotetrahydro-4H-furo[3,2-d][1,3,2]dioxaphosphinin-6-yl)-5-fluoropyrimidine-2,4(1H,3H)-dione]", "values": [{"measurement": "concentration at 1 h", "setting": "[1]", "result": "< 1", "unit": "ng/mL"}, {"measurement": "concentration at 1 h", "setting": "[2]", "result": "< 6", "unit": "ng/g"}]}
{"smiles": "O=c1[nH]c(=O)n([C@H]2C[C@@H]3OP(=O)(OCc4ccc(C(F)(F)F)cc4)OC[C@H]3O2)cc1F", "note": "(stereo partly drawn) [Compound 156, 5-Fluoro-1-((4aR,6R,7aS)-2-oxido-2-((4-(trifluoromethyl)benzyl)oxy)tetrahydro-4H-furo[3,2-d][1,3,2]dioxaphosphinin-6-yl)pyrimidine-2,4(1H,3H)-dione]", "values": [{"measurement": "concentration at 1 h", "setting": "[1]", "result": 3.66, "unit": "ng/mL"}, {"measurement": "concentration at 1 h", "setting": "[2]", "result": "< 6", "unit": "ng/g"}]}
{"smiles": "CCCCCCCOP1(=O)OC[C@H]2O[C@@H](n3cc(F)c(=O)[nH]c3=O)C[C@@H]2O1", "note": "(stereo partly drawn) [Compound 201, 5-Fluoro-1-((4aR,6R,7aS)-2-(heptyloxy)-2-oxidotetrahydro-4H-furo[3,2-d][1,3,2]dioxaphosphinin-6-yl)pyrimidine-2,4(1H,3H)-dione]", "values": [{"measurement": "concentration at 1 h", "setting": "[3]", "result": 109, "unit": "ng/mL"}, {"measurement": "concentration at 1 h", "setting": "[4]", "result": 1040, "unit": "ng/g"}]}
{"smiles": "CCCCCCCCOP1(=O)OC[C@H]2O[C@@H](n3cc(F)c(=O)[nH]c3=O)C[C@@H]2O1", "note": "(stereo partly drawn) [Compound 202, 5-Fluoro-1-((4aR,6R,7aS)-2-(octyloxy)-2-oxidotetrahydro-4H-furo[3,2-d][1,3,2]dioxaphosphinin-6-yl)pyrimidine-2,4(1H,3H)-dione]", "values": [{"measurement": "concentration at 1 h", "setting": "[3]", "result": 158, "unit": "ng/mL"}, {"measurement": "concentration at 1 h", "setting": "[4]", "result": 2560, "unit": "ng/g"}]}
{"smiles": "O=c1[nH]c(=O)n([C@H]2C[C@@H]3OP(=O)(OCCCC4CCCC4)OC[C@H]3O2)cc1F", "note": "(stereo partly drawn) [Compound 207, 5-Fluoro-1-((4aR,6R,7aS)-2-(3-cyclopentylpropyloxy)-2-oxidotetrahydro-4H-furo[3,2-d][1,3,2]dioxaphosphinin-6-yl)pyrimidine-2,4(1H,3H)-dione]", "values": [{"measurement": "concentration at 1 h", "setting": "[3]", "result": 29.4, "unit": "ng/mL"}, {"measurement": "concentration at 1 h", "setting": "[4]", "result": 429, "unit": "ng/g"}]}
{"smiles": "O=c1[nH]c(=O)n([C@H]2C[C@@H]3OP(=O)(OCC4(c5ccccc5)CC4)OC[C@H]3O2)cc1F", "note": "(stereo partly drawn) [Compound 217, 5-Fluoro-1-((4aR,6R,7aS)-2-oxido-2-((1-phenylcyclopropyl)methoxy)tetrahydro-4H-furo[3,2-d][1,3,2]dioxaphosphinin-6-yl)pyrimidine-2,4(1H,3H)-dione]", "values": [{"measurement": "concentration at 1 h", "setting": "[3]", "result": 21.7, "unit": "ng/mL"}, {"measurement": "concentration at 1 h", "setting": "[4]", "result": 255, "unit": "ng/g"}]}
{"smiles": "O=c1[nH]c(=O)n([C@H]2C[C@@H]3OP(=O)(OCc4ccc(F)cc4C4OCCO4)OC[C@H]3O2)cc1F", "note": "(stereo partly drawn) [Compound 219, 1-((4aR,6R,7aS)-2-((2-(1,3-Dioxolan-2-yl)-4-fluorobenzyl)oxy)-2-oxidotetrahydro-4H-furo[3,2-d][1,3,2]dioxaphosphinin-6-yl)-5-fluoropyrimidine-2,4(1H,3H)-dione]", "values": [{"measurement": "concentration at 1 h", "setting": "[3]", "result": 20, "unit": "ng/mL"}, {"measurement": "concentration at 1 h", "setting": "[4]", "result": 49.9, "unit": "ng/g"}]}
{"smiles": "O=c1[nH]c(=O)n([C@H]2C[C@@H]3OP(=O)(OCCCc4ccccc4)OC[C@H]3O2)cc1F", "note": "(stereo partly drawn) [Compound 220, 5-Fluoro-1-((4aR,6R,7aS)-2-(3-phenylpropyloxy)-2-oxidotetrahydro-4H-furo[3,2-d][1,3,2]dioxaphosphinin-6-yl)pyrimidine-2,4(1H,3H)-dione]", "values": [{"measurement": "concentration at 1 h", "setting": "[3]", "result": 122, "unit": "ng/mL"}, {"measurement": "concentration at 1 h", "setting": "[4]", "result": 944, "unit": "ng/g"}]}
{"smiles": "C[C@H](NP(=O)(OC[C@H]1O[C@@H](n2cc(F)c(=O)[nH]c2=O)C[C@@H]1O)Oc1cccc2ccccc12)C(=O)OCc1ccccc1", "note": "(stereo partly shown) [NUC-3373, reference compound]", "values": [{"measurement": "concentration at 1 h", "setting": "[3]", "result": "< 1", "unit": "ng/mL"}, {"measurement": "concentration at 1 h", "setting": "[4]", "result": "< 6", "unit": "ng/g"}]}
